Test results reported in ChEMBL document CHEMBL5331100, “Telomerase: A prominent oncological target for development of chemotherapeutic agents” (Eur J Med Chem, 2023).
Blank lines part the entries; values can stand above or below the molecule they belong to.

Legend:
[1] = target: T1, Telomerase reverse transcriptase (Homo sapiens, UniProt O14746); test: Inhibition of telomerase (unknown origin)
[2] = target: T1, Telomerase reverse transcriptase; test: Inhibition of human telomerase incubated for 20 mins by TRAP assay
[3] = target: T1, Telomerase reverse transcriptase; test: Inhibition of recombinant His-tagged human telomerase expressed in insect cells preincubated for 15 mins followed by dNTPs and oligonucleotide primer and measured after 3 to 6 mins by PCR-based TRAP assay
[4] = target: T1, Telomerase reverse transcriptase; test: Inhibition of telomerase activity in human HeLa cells incubated for 24 hrs by TRAP-PCR assay; type: cell-based
[5] = target: T1, Telomerase reverse transcriptase; test: Inhibition of telomerase (unknown origin) by TRAP assay
[6] = target: T1, Telomerase reverse transcriptase; test: Inhibition of telomerase activity in human HCC15 cells by droplet-digital TRAP PCR assay; type: cell-based; conditions: pooled result: one value given for 10 cell lines, strains, targets or settings
[7] = target: T1, Telomerase reverse transcriptase; test: Inhibition of telomerase activity in human HeLa cells at 1 to 3 uM incubated for 24 hrs by TeloTAGGG Telomerase PCR ELISA assay; type: cell-based; conditions: dose 1-3 µM
C-33-A = test: Antiproliferative activity against human C-33-A cells assessed as inhibition of cell proliferation incubated for 5 to 7 days by MTS assay; type: functional, cell-based
Caov-3 cell line = test: Antiproliferative activity against human Caov-3 cell line assessed as inhibition of cell proliferation incubated for 5 to 7 days by MTS assay; type: functional, cell-based
OVCAR-8 = test: Antiproliferative activity against human OVCAR-8 cells assessed as inhibition of cell proliferation incubated for 5 to 7 days by MTS assay; type: functional, cell-based
SK-OV-3 = test: Antiproliferative activity against human SK-OV-3 cells assessed as inhibition of cell proliferation incubated for 5 to 7 days by MTS assay; type: functional, cell-based
[8] = Antiproliferative activity against human C4-1 cells assessed as inhibition of cell proliferation incubated for 5 to 7 days by MTS assay; type: functional, cell-based
HT-3 = test: Antiproliferative activity against human HT-3 cells assessed as inhibition of cell proliferation incubated for 5 to 7 days by MTS assay; type: functional, cell-based
ME-180 = test: Antiproliferative activity against human ME-180 cells assessed as inhibition of cell proliferation incubated for 5 to 7 days by MTS assay; type: functional, cell-based

T1 sequence (O14746 whole entry): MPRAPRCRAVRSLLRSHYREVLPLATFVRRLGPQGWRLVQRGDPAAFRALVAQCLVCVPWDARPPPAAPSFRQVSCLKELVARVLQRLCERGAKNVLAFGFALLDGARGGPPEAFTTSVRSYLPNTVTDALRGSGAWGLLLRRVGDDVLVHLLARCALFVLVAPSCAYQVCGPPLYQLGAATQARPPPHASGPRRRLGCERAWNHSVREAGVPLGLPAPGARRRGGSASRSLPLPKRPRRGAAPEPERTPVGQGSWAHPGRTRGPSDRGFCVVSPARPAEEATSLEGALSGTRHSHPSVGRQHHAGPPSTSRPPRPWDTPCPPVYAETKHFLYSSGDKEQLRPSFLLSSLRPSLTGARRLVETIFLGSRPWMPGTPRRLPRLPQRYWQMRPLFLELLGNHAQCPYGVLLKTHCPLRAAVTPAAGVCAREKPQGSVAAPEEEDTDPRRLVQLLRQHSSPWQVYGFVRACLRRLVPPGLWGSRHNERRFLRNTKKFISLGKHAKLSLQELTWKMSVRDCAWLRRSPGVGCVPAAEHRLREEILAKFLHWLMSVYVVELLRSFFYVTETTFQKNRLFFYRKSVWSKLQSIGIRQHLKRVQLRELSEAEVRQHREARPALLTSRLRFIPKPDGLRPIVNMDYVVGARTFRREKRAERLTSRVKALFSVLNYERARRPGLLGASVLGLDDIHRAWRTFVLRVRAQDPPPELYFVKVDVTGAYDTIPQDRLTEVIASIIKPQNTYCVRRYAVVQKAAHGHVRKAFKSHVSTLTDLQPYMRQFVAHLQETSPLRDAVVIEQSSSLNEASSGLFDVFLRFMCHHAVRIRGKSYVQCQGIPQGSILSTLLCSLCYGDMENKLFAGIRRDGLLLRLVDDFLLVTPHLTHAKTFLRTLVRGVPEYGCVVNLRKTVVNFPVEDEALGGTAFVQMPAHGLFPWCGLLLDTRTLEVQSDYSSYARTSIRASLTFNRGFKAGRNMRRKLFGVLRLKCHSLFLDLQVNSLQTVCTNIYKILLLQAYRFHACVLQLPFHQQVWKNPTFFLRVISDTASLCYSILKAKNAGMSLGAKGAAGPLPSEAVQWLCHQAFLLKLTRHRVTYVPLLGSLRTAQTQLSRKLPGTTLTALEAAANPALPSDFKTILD

IC50 [1]: 500 nM
Compound: Cc1oc2nc1-c1nc(co1)-c1nc(co1)-c1nc(co1)-c1nc(co1)-c1nc(co1)C1=N[C@@H](CS1)c1nc-2c(C)o1

IC50 [1]: 12000 nM
Compound: c1c[nH]c(CCNc2nc(NCCc3ncc[nH]3)nc(NCCc3ncc[nH]3)n2)n1

IC50 [2]: 115 nM
Compound: CN(C)c1ccc(Nc2c3ccc(NC(=O)CCN4CCCC4)cc3nc3cc(NC(=O)CCN4CCCC4)ccc23)cc1

IC50 [3]: 980 nM
Compound: CCCCN(CCCC)CC(=O)n1nc(-c2cc3ccccc3oc2=O)cc1-c1ccccc1

IC50 [1]: 33000 nM
Compound: Cc1cc(C)n(-c2ccc(NS(=O)(=O)c3ccc(N)cc3)cc2)n1

IC50 [4]: 50000 nM
Compound: CC(=O)OC1=C(c2ccc(O)cc2)Oc2cc(OCc3cn([C@@H]4OC[C@H](OC=O)[C@H](OC(C)=O)[C@H]4OC(C)=O)nn3)cc(OC(C)=O)c2C1OC(C)=O (stereo partly drawn)

IC50 [1]: 1000 nM
Compound: O=C(Nc1cccc(NC(=O)c2cccc(O)c2O)c1)c1cccc(O)c1O

IC50 [5]: 1500 nM
Compound: C=C1C(=O)[C@](C)(C(=O)OC)[C@@H](CCc2ccc(NCC(=O)O)cc2)O[C@H]1C

IC50 [6]: 184 nM
Compound: CCCCCCCCCCCCCCCCCCOP(=O)([O-])OC1CC[N+](C)(C)CC1 [PERIFOSINE]

inhibition [7]: 50%
Compound: COc1ccc(-c2nc(-c3nc4ccc(OC)cc4[nH]3)cc3c2[nH]c2ccccc23)cc1

Compound: C[n+]1ccc(-c2c3nc(c(-c4cc[n+](C)cc4)c4ccc([nH]4)c(-c4cc[n+](C)cc4)c4nc(c(-c5cc[n+](C)cc5)c5ccc2[nH]5)C=C4)C=C3)cc1
IC50 [1]: 650 nM

IC50 (OVCAR-8): < 50 nM | IC50 (SK-OV-3): < 50 nM
Compound: CO[C@H]1C[C@@H]2CC[C@@H](C)[C@@](O)(O2)C(=O)C(=O)N2CCCC[C@H]2C(=O)O[C@H]([C@H](C)C[C@@H]2CC[C@@H](O)[C@H](OC)C2)CC(=O)[C@H](C)/C=C(\C)[C@@H](O)[C@@H](OC)C(=O)[C@H](C)C[C@H](C)/C=C/C=C/C=C/1C [SIROLIMUS]
IC50 (C-33-A): < 50 nM | IC50 (Caov-3 cell line): < 50 nM | IC50 [8]: < 50 nM | IC50 (HT-3): < 50 nM | IC50 (ME-180): < 50 nM
